From US7083798B1, “Method of immunomodulatory treatment of insulin dependent diabetes mellitus using mycobacterial cell wall compositions” (Centenary Institute of Cancer Medicine and Cell Biology, priority 1996, dated 2006)

Test system: mice
Assay: Maximum dose tolerated by mice
Experimental: GMDP (10, 5.0, 2.5 and 1.0 μg), ManLAM (50, 25, 12.5 and 6.25 μg), and MAPG (1.0, 0.5, 0.25 and 0.125 mg) were each suspended in saline and injected intravenously into eight week old female NOD mice. […] Groups of 5 mice were tested and the incidence of diabetes compared to 17 saline treated and 14 BCG treated control mice.

## CC(=O)N[C@H]1[C@H](O[C@H]2[C@H](O[C@H](C)C(=O)N[C@@H](C)C(=O)N[C@H](CCC(=O)O)C(N)=O)[C@@H](NC(C)=O)C(O)O[C@@H]2CO)O[C@H](CO)[C@@H](O)[C@@H]1O (stereo partly drawn) [GMDP, N-acetylglucosaminyl-N-acetylmuramyl-L-alanyl-D-isoglutamine]
  maximum dose tolerated by mice: 10 µL·g
